The values below are quoted from earlier work in patent US20190167749A1, “THE OLEO GEL COMPOSITION AND DELIVERY SYSTEM WITH ACTIVE COMPOUNDS FROM CANNABIS SATIVA AND MENTHA ARVENSIS FOR REDUCTION OF INFLAMMATION AND PAIN IN DEEP TISSUES” (UAB SATIMED, priority 2016, published 2019).

Molecules are shown by their SMILES. Like-named read-outs stand apart in the source and are kept apart here.

The series has as its system collagen-induced arthritis.

As to `C=C(C)[C@@H]1CCC(C)=C[C@H]1c1c(O)cc(CCCCC)cc1O` [CBD, cannabidiol], the progression of arthritis entry (acute and chronic relapsing CIA, i.p. or oral administration) is “effectively blocked progression of arthritis”. Also, the “dose with optimal effect (bell-shaped dose dependency)” value runs as follows: (i.p.) 5 mg/kg per day; (orally) 25 mg/kg per day.
